Measured values published in patent US12281225B2, “Process for preparing stable polymers containing vinylimidazole” (BASF SE, priority 2018, dated 2025).

Legend:
[1] = system: Yeast: Candida albicans, Candida valida, Rhodotorula rura, Saccharomyces cerevisiae; assay: Preservation test with periodic inoculation, yeast assessment; assay type: cell-based; conditions: for 60 d 40° C., yeast assess., 4th inoculation: sample stored 60 d at 40° C.; for Start sample measurement, yeast assess., 4th inoculation: freshly formulated
Procedure, shortened: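 Polymer samples (25 g) containing preservative were inoculated weekly, four times, with 10^9/ml bacterial or yeast mixtures (0.5 ml). Weekly streaks on agar were scored semiquantitatively (−− to ++) after 3 days at 25 °C, on fresh samples and on samples stored 60 days at 40 °C.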

[2] = Analysis of active substance: preservative concentration before and after storage in VI-containing polymer solution; assay type: physicochemical; conditions: for active-substance concentration, 0 d, RT: before storage; for active-substance concentration, 14 d, 40° C.: storage 14 d at 40° C.; for active-substance concentration, 28 d, 40° C.: storage 28 d at 40° C.; for active-substance concentration, 60 d 40° C.: storage 60 d at 40° C.
Procedure, shortened: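 Preservatives (MIT, BIT, CMIT, OIT, DCOIT, iodopropynyl butyl carbamate) in aqueous vinylpyrrolidone–vinylimidazole copolymer solution quantified after dilution by isocratic RP18 chromatography with UV detection, using an acid-methanol eluent.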

[3] = system: Bacteria: Escherichia coli, Staphylococcus aureus, Pseudomonas aeruginosa, Pseudomonas putida, Burkholderia cepacia, Alcaligenes faecalis; assay: Preservation test with periodic inoculation, bacteria assessment; assay type: cell-based; conditions: Polymer P4; sample stored 60 d at 40° C.
Procedure: Microbiological results at the start (freshly formulated, i.e. 4-week test series is started immediately) and after 60 days of storage at 40° C. (i.e. the 4-week microbial testing is started with the sample stored at 40° C. for 60 days)
The test described below is carried out in order to ascertain the preserving effect of chemical preservatives in aqueous products and systems, the principle of the described method reflecting the efficacy of chemical preservatives with respect to pot-maintenance of aqueous products/systems under conditions corresponding to the use of laundry products/consumer products by the consumer. For this purpose, the preservatives to be tested are added in those concentrations which correspond to from the literature or to the manufacturer data from the suppliers (e.g. Thor, Speyer). In said test, our orientation was toward the upper range, which, with the exception of VI-containing polymers, had always led to excellent results in the case of aqueous polymers for laundry.
A constant microorganism load is achieved by periodic inoculation of the test batches. Before the swabs of each batch made respectively immediately in parallel with the inoculation. The assessment is made on the basis of the microbial growth of the streaks.
When carrying out said tests, 25 g of the polymer to be tested are weighed in each case into a vessel with a screw cap. The preservatives to be tested are each added in separate batches according to the specified use concentrations. An unpreserved product sample was used in each case for the growth control. Two days after the addition of the preservative, the samples are infected with 0.5 ml of inoculum (2% w/w). The titer of this inoculant solution is 10^9 organisms per ml. The following microorganisms are the test organisms for the preservation test:
• Escherichia coli • Staphylococcus aureus • Pseudomonas aeruginosa • Pseudomonas putida • Burkholderia cepacia • Alcaligenes faecalis Yeast: • Candida albicans • Candida valida • Rhodotorula rura • Saccharomyces cerevisiae
The test batches are inoculated four times altogether and once a week and are streaked on an agar plate once a week; the first streaking is done immediately before the new inoculation. Microbial growth on the agar surface is assessed after a three-day incubation at 25° C. As a precaution, negative swabs are additionally observed for a further three days and reassessed. The preserving effect is effected in a semiquantitative method via the growth of the individual streaks in accordance with the assessment from − via + to +++. The preservative result is repeatedly demonstrably robust, i.e. +++− defines the microbial growth.
When assessing the results, it is assumed that a preservative can be regarded as good if there are batches under the above-described laboratory conditions for a period of four weeks without microbial invasion of the sample, and that, even after the fourth inoculation, no microbial attacks occur growth can be identified. • −−: no growth • −: slight growth, max. 100 colonies • 0: moderate growth, max. 400 colonies • +: uniform growth with individual colonies still easily identifiable • ++: strong growth; too many colonies to be counted, already some extensive growth

[4] = Iodine color number according to DIN 6162:2014-09; assay type: physicochemical
[5] = Polymer P5 (HP56) with stabilizer

active-substance concentration, 0 d, RT ([2]; in Polymer P1): 1000 ppm
active-substance concentration, 14 d, 40° C. ([2]; in Polymer P1): 960 ppm
active-substance concentration, 28 d, 40° C. ([2]; in Polymer P1): 960 ppm
active-substance concentration, 60 d 40° C. ([2]; in Polymer P1): 940 ppm
active-substance concentration, 0 d, RT ([2]; in Polymer P2): 1000 ppm
active-substance concentration, 14 d, 40° C. ([2]; in Polymer P2): 960 ppm
active-substance concentration, 28 d, 40° C. ([2]; in Polymer P2): 960 ppm
active-substance concentration, 60 d 40° C. ([2]; in Polymer P2): 940 ppm
active-substance concentration, 0 d, RT ([2]; in Polymer P3): 1000 ppm
active-substance concentration, 14 d, 40° C. ([2]; in Polymer P3): 975 ppm
active-substance concentration, 28 d, 40° C. ([2]; in Polymer P3): 968 ppm
active-substance concentration, 60 d 40° C. ([2]; in Polymer P3): 952 ppm
active-substance concentration, 0 d, RT ([2]; in Polymer P4): 1000 ppm
active-substance concentration, 14 d, 40° C. ([2]; in Polymer P4): 964 ppm
active-substance concentration, 28 d, 40° C. ([2]; in Polymer P4): 960 ppm
active-substance concentration, 60 d 40° C. ([2]; in Polymer P4): 944 ppm
active-substance concentration, 0 d, RT ([2]; in Polymer P5 (HP56)): 1000 ppm
active-substance concentration, 14 d, 40° C. ([2]; in Polymer P5 (HP56)): 960 ppm
active-substance concentration, 28 d, 40° C. ([2]; in Polymer P5 (HP56)): 960 ppm
active-substance concentration, 60 d 40° C. ([2]; in Polymer P5 (HP56)): 940 ppm
active-substance concentration, 0 d, RT ([2]; in Polymer P6): 1000 ppm
active-substance concentration, 14 d, 40° C. ([2]; in Polymer P6): 970 ppm
active-substance concentration, 28 d, 40° C. ([2]; in Polymer P6): 961 ppm
active-substance concentration, 60 d 40° C. ([2]; in Polymer P6): 954 ppm
active-substance concentration, 0 d, RT ([2]; in Polymer P7): 1000 ppm
active-substance concentration, 14 d, 40° C. ([2]; in Polymer P7): 975 ppm
active-substance concentration, 28 d, 40° C. ([2]; in Polymer P7): 966 ppm
active-substance concentration, 60 d 40° C. ([2]; in Polymer P7): 953 ppm
active-substance concentration, 0 d, RT ([2]; in Polymer P8): 1000 ppm
active-substance concentration, 14 d, 40° C. ([2]; in Polymer P8): 960 ppm
active-substance concentration, 28 d, 40° C. ([2]; in Polymer P8): 960 ppm
active-substance concentration, 60 d 40° C. ([2]; in Polymer P8): 940 ppm
active-substance concentration, 0 d, RT ([2]; in Polymer P9): 1000 ppm
active-substance concentration, 14 d, 40° C. ([2]; in Polymer P9): 960 ppm
active-substance concentration, 28 d, 40° C. ([2]; in Polymer P9): 960 ppm
active-substance concentration, 60 d 40° C. ([2]; in Polymer P9): 940 ppm
Iodine color number, 60 d 40° C. ([4]; Polymer P1 with stabilizer): 2.7
Iodine color number, start ([4]; Polymer P1 with stabilizer): 2.6
Iodine color number, 60 d 40° C. ([4]; Polymer P2 with stabilizer): 3.1
Iodine color number, start ([4]; Polymer P2 with stabilizer): 3.0
Iodine color number, 60 d 40° C. ([4]; Polymer P3 with stabilizer): 3.3
Iodine color number, start ([4]; Polymer P3 with stabilizer): 3.1
Iodine color number, 60 d 40° C. ([4]; Polymer P4 with stabilizer): 3.3
Iodine color number, start ([4]; Polymer P4 with stabilizer): 3.1
Iodine color number, 60 d 40° C. [4, 5]: 3.3
Iodine color number, start [4, 5]: 3.4
Iodine color number, 60 d 40° C. ([4]; Polymer P6 with stabilizer): 3.5
Iodine color number, start ([4]; Polymer P6 with stabilizer): 3.4
Iodine color number, 60 d 40° C. ([4]; Polymer P7 with stabilizer): 3.5
Iodine color number, start ([4]; Polymer P7 with stabilizer): 3.4
Iodine color number, 60 d 40° C. ([4]; Polymer P8 with stabilizer): 3.5
Iodine color number, start ([4]; Polymer P8 with stabilizer): 3.2
Iodine color number, 60 d 40° C. ([4]; Polymer P9 with stabilizer): 3.9
Iodine color number, start ([4]; Polymer P9 with stabilizer): 3.7
SMILES: CCCCCCCCCCCCCCCC[N+](C)(C)Cc1ccccc1.[Cl-] [Polymer 16-BAC, cetylalkonium chloride]
60 d 40° C., yeast assess., 4th inoculation ([1]; Polymer P1): − (slight growth, max. 100 colonies)
Start sample measurement, yeast assess., 4th inoculation ([1]; Polymer P2): − (slight growth, max. 100 colonies)
60 d 40° C., yeast assess., 4th inoculation ([1]; Polymer P2): − (slight growth, max. 100 colonies)
Start sample measurement, yeast assess., 4th inoculation ([1]; Polymer P3): − (slight growth, max. 100 colonies)
60 d 40° C., yeast assess., 4th inoculation ([1]; Polymer P3): − (slight growth, max. 100 colonies)
Start sample measurement, yeast assess., 4th inoculation ([1]; Polymer P4): − (slight growth, max. 100 colonies)
60 d 40° C., yeast assess., 4th inoculation ([1]; Polymer P4): − (slight growth, max. 100 colonies)
Start sample measurement, yeast assess., 4th inoculation ([1]; Polymer P5 (HP56)): − (slight growth, max. 100 colonies)
60 d 40° C., yeast assess., 4th inoculation ([1]; Polymer P5 (HP56)): − (slight growth, max. 100 colonies)
Start sample measurement, yeast assess., 4th inoculation ([1]; Polymer P6): − (slight growth, max. 100 colonies)
60 d 40° C., yeast assess., 4th inoculation ([1]; Polymer P6): − (slight growth, max. 100 colonies)
Start sample measurement, yeast assess., 4th inoculation ([1]; Polymer P7): − (slight growth, max. 100 colonies)
60 d 40° C., yeast assess., 4th inoculation ([1]; Polymer P7): − (slight growth, max. 100 colonies)
60 d 40° C., yeast assess., 4th inoculation ([1]; Polymer P8): − (slight growth, max. 100 colonies)
60 d 40° C., yeast assess., 4th inoculation ([1]; Polymer P9): − (slight growth, max. 100 colonies)
60 d 40° C., bact. assess., 4th inoculation [3]: − (slight growth, max. 100 colonies)
